The source of these data is publication PMC9036627, “Global update on the susceptibility of human influenza viruses to neuraminidase inhibitors, 2013–2014” (Antiviral research, 2015).

Test [1] has as its system neuraminidase (NA) of B/Victoria-lineage viruses. In kind it is biochemical, influenza B/Victoria-lineage virus. The settings on record: B/Victoria-lineage, no NA amino acid substitution (None); n=3; range.
For test [2], the system named is neuraminidase (NA) of B/Yamagata-lineage viruses. In kind it is biochemical, influenza B/Yamagata-lineage virus. The settings on record: for IC50 fold-change compared to reference median IC50 values: B/Yamagata-lineage, no NA amino acid substitution (None), n=3, range.
The test system is the same in test [3]. Also on record: method as in Oakley et al., 2010. Conditions: B/Yamagata-lineage virus, observed before, ref Oakley et al., 2010; cited from earlier work.

Molecules are shown by their SMILES.

In the case of `[H]/N=C(\N)N[C@H]1C=C(C(=O)O)O[C@@H]([C@H](OC)[C@H](O)CO)[C@@H]1NC(C)=O` [Laninamivir, laninamivir], the “IC50 fold-change compared to reference median IC50 values” (shortened to “IC50 fold-change”) in test [1] is reported as 0.7–4.7 fold; in test [2], 0.6–5.1 fold. Besides, the “Included in phenotypic analysis: inhibition category (HRI/RI/NI)” value in test [2] is “Yes (RI to zanamivir, oseltamivir, peramivir and laninamivir) (key: NI < 5-fold; RI 5 to 50-fold; HRI > 50-fold)”.

As to `CCOC(=O)C1=C[C@@H](OC(CC)CC)[C@H](NC(C)=O)[C@@H](N)C1` [Oseltamivir, oseltamivir], the results for the “IC50 fold-change” value in test [1] and in test [2] were 0.6–4.1 fold and 1.7–10 fold, respectively.

For `CCC(CC)[C@H](NC(C)=O)[C@@H]1[C@H](O)[C@@H](C(=O)O)C[C@H]1N=C(N)N` [Peramivir, peramivir], the “IC50 fold-change” value in test [1] is 0.9–6.5 fold; in test [2], 2.0–7.8 fold. Also, the “inhibition category conferred by NA D197N” value in test [3] was “RI (RI 5 to 50-fold)”.

As for `CC(=O)N[C@H]1[C@H]([C@H](O)[C@H](O)CO)OC(C(=O)O)=C[C@@H]1N=C(N)N` [Zanamivir, zanamivir], in test [1], the “IC50 fold-change” value is given as 0.7–8.7 fold. In test [2], the “Included in phenotypic analysis: inhibition category (HRI/RI/NI)” value is “Yes (RI to zanamivir, oseltamivir, peramivir and laninamivir) (key: NI < 5-fold; RI 5 to 50-fold; HRI > 50-fold)”; the “IC50 fold-change” value is recorded as 0.9–5.3 fold. Further, the “inhibition category conferred by NA D197N” value in test [3] is reported as “RI (RI 5 to 50-fold)”.
